Measurements taken from patent publication US20220142955A1, “METHODS OF TREATING ORGANIC ACIDEMIAS” (HemoShear Therapeutics, Inc., priority 2019, published 2022).
Like-named read-outs stand apart in the source and are kept apart here.

What was measured:
Type in all cases: cell-based, human
MMA primary hepatocytes = assay: HemoShear Technology, MMA primary hepatocytes (Examples 10, 11); conditions: for EC50 / EC90: Homo sapiens, Hepatocyte
PA primary hepatocytes = assay: Static cell culture, low/high propiogenic media, PA primary hepatocytes; conditions: for EC50 / EC90: Homo sapiens, Hepatocyte
Description: Unlike the HemoShear Technology, this assay is carried out without constant perfusion, utilizing cell culture media that was customized to mimic plasma levels of propiogenic sources (amino acids and ketoacids) in PA and MMA patients during periods of relative metabolic stability (low propiogenic media) and acute metabolic crisis (high propiogenic media). PA and MMA pHeps, in static cell culture, were treated with Compound 5 (concentrations ranging from 0.1 μM to 100 μM) for 30 minutes in low propiogenic media, followed by either a continuation of low propiogenic media or a switch to the high propiogenic media for 1 hour. The media used during the 1-hour incubation contained propiogenic SIL amino acids and ketoacids which are metabolized into labeled P-CoA and M-CoA in the cells. The SIL amino acids and ketoacids were a mix of ^13C and MeD8 labelling, but their catabolism produced a SIL P-CoA (denoted as ^13C-P-CoA for simplicity) with the same mass, independent of the type of SIL (also true for ^13C-M-CoA).

[1] = system: normal primary hepatocytes; assay: HemoShear Technology, normal primary hepatocytes (Example 11); conditions: Normal pHeps
[2] = MMA pHeps, HemoShear, average ± SD
[3] = PA pHeps, high propiogenic, static culture
[4] = PA pHeps, low propiogenic, static culture

CCC(C)(C)C(=O)O [Compound 5, 2,2-dimethybutanoic acid]
EC50 (MMA primary hepatocytes; MMA donor 1, representative data (FIG. 7E), read-out: MCA reduction EC50): 1.66 µM | EC50 (MMA primary hepatocytes; MMA pHeps, HemoShear, average ± SD, read-out: 2-Methylcitric acid (2MC) EC50): 0.8 ± 0.5 µM | EC90 (MMA primary hepatocytes; MMA pHeps, HemoShear, average ± SD, read-out: 2-Methylcitric acid (2MC) EC90): 7.5 ± 6.4 µM | EC50 (MMA primary hepatocytes; MMA pHeps, HemoShear, average ± SD, read-out: 12C-Acetyl-Camitine (C2) EC50): 4.3 ± 2.2 µM | EC90 (MMA primary hepatocytes; MMA pHeps, HemoShear, average ± SD, read-out: 12C-Acetyl-Camitine (C2) EC90): 31.3 ± 26.9 µM | EC50 (MMA primary hepatocytes; MMA pHeps, HemoShear, average ± SD, read-out: 12C-Methylmalonyl-CoA (M-CoA) EC50): 2 ± 1.2 µM | EC90 (MMA primary hepatocytes; MMA pHeps, HemoShear, average ± SD, read-out: 12C-Methylmalonyl-CoA (M-CoA) EC90): 12.6 ± 12.9 µM | EC50 (MMA primary hepatocytes; MMA pHeps, HemoShear, average ± SD, read-out: 12C-Propionyl-Carnitine (C3) EC50): 1.4 ± 0.5 µM | EC90 (MMA primary hepatocytes; MMA pHeps, HemoShear, average ± SD, read-out: 12C-Propionyl-Carnitine (C3) EC90): 18.1 ± 16.2 µM | EC50 (MMA primary hepatocytes; MMA pHeps, HemoShear, average ± SD, read-out: 12C-Propionyl-CoA (P-CoA) EC50): 2.1 ± 1.5 µM | EC90 (MMA primary hepatocytes; MMA pHeps, HemoShear, average ± SD, read-out: 12C-Propionyl-CoA (P-CoA) EC90): 36.1 ± 30.1 µM | EC50 (MMA primary hepatocytes; MMA pHeps, HemoShear, read-out: CoASH EC50): 14.1 ± 8.4 µM | EC90 (MMA primary hepatocytes; MMA pHeps, HemoShear, read-out: CoASH EC90): 23.8 ± 20.2 µM | EC50 (MMA primary hepatocytes; MMA pHeps, HemoShear, read-out: Compound 5-CoA (formation) EC50): 3.5 ± 1.7 µM | EC90 (MMA primary hepatocytes; MMA pHeps, HemoShear, read-out: Compound 5-CoA (formation) EC90): 52.4 ± 45.6 µM | 12C-Acetyl-CoA Percent change at 30 μM (MMA primary hepatocytes; MMA pHeps, HemoShear): 13.5 ± 24.9% | CoASH Percent change at 30 μM (MMA primary hepatocytes; MMA pHeps, HemoShear): −22.3 ± 22.3% | average reduction in the C3/C2 ratio (MMA primary hepatocytes; MMA pHeps, HemoShear, at 30 μM): −2.2±0.2 log 2 fold change | 2-Methylcitric acid (2MC) % change at 30 μM (MMA primary hepatocytes; [2]): −66.7±14.9% | 12C-Acetyl-Camitine (C2) % change at 30 μM (MMA primary hepatocytes; [2]): 44.6 ± 26.8% | 12C-Methylmalonyl-CoA (M-CoA) % change at 30 μM (MMA primary hepatocytes; [2]): −55±6.6% | 12C-Propionyl-Carnitine (C3) % change at 30 μM (MMA primary hepatocytes; [2]): −65.9±10.7% | 12C-Propionyl-CoA (P-CoA) % change at 30 μM (MMA primary hepatocytes; [2]): −74.2±11.6% | EC50 (PA primary hepatocytes; PA pHeps, high propiogenic media, static, read-out: 13C-Propionyl-CoA (13C-P-CoA) EC50): 1.7 ± 1 µM | EC90 (PA primary hepatocytes; PA pHeps, high propiogenic media, static, read-out: 13C-Propionyl-CoA (13C-P-CoA) EC90): 11.6 ± 7.4 µM | EC50 (PA primary hepatocytes; PA pHeps, high propiogenic, static culture, read-out: 12C-Acetyl-CoA EC50): 0.7 ± 0.5 µM | EC90 (PA primary hepatocytes; PA pHeps, high propiogenic, static culture, read-out: 12C-Acetyl-CoA EC90): 1.9 ± 1.3 µM | EC50 (PA primary hepatocytes; PA pHeps, high propiogenic, static culture, read-out: CoASH EC50): 2.1 ± 1.6 µM | EC90 (PA primary hepatocytes; PA pHeps, high propiogenic, static culture, read-out: CoASH EC90): 11.1 ± 13 µM | EC50 (PA primary hepatocytes; PA pHeps, high propiogenic, static culture, read-out: Compound 5-CoA (formation) EC50): 2.6 ± 1.6 µM | EC90 (PA primary hepatocytes; PA pHeps, high propiogenic, static culture, read-out: Compound 5-CoA (formation) EC90): 42 ± 45.8 µM | EC50 (PA primary hepatocytes; PA pHeps, low propiogenic media, static, read-out: 13C-Propionyl-CoA (13C-P-CoA) EC50): 2 ± 1.8 µM | EC90 (PA primary hepatocytes; PA pHeps, low propiogenic media, static, read-out: 13C-Propionyl-CoA (13C-P-CoA) EC90): 6.9 ± 5.4 µM | EC50 (PA primary hepatocytes; PA pHeps, low propiogenic, static culture, read-out: 12C-Acetyl-CoA EC50): 0.4 ± 0.2 µM | EC90 (PA primary hepatocytes; PA pHeps, low propiogenic, static culture, read-out: 12C-Acetyl-CoA EC90): 1.6 ± 1.3 µM | EC50 (PA primary hepatocytes; PA pHeps, low propiogenic, static culture, read-out: CoASH EC50): 0.9 ± 0.3 µM | EC90 (PA primary hepatocytes; PA pHeps, low propiogenic, static culture, read-out: CoASH EC90): 9.1 ± 5.8 µM | EC50 (PA primary hepatocytes; PA pHeps, low propiogenic, static culture, read-out: Compound 5-CoA (formation) EC50): 1.4 ± 0.6 µM | EC90 (PA primary hepatocytes; PA pHeps, low propiogenic, static culture, read-out: Compound 5-CoA (formation) EC90): 15.3 ± 11.3 µM | EC90 (PA primary hepatocytes; static cell culture, PA and MMA pHeps, low and high propiogenic media together, read-out: average EC90 value across all biomarkers): 11 ± 9.6 µM | 13C-Propionyl-CoA (13C-P-CoA) % change at 30 μM (PA primary hepatocytes; PA pHeps, high propiogenic media, static): −85.3±9.1% | 12C-Acetyl-CoA Percent change (30 μM) (PA primary hepatocytes; [3]): −27 ± 3.4% | CoASH Percent change (30 μM) (PA primary hepatocytes; [3]): −48 ± 14.3% | 13C-Propionyl-CoA (13C-P-CoA) % change at 30 μM (PA primary hepatocytes; PA pHeps, low propiogenic media, static): −76.4±12.6% | 12C-Acetyl-CoA Percent change (30 μM) (PA primary hepatocytes; [4]): −36.6 ± 13.5% | CoASH Percent change (30 μM) (PA primary hepatocytes; [4]): −55.2 ± 7.1% | EC50 ([1]; Homo sapiens, Hepatocyte, read-out: Compound 5-CoA (formation) EC50): 8.3 ± 8 µM | EC90 ([1]; Homo sapiens, Hepatocyte, read-out: Compound 5-CoA (formation) EC90): 26.1 ± 3.1 µM | 12C-Acetyl-CoA Percent change at 30 μM [1]: 20 ± 2.9% | CoASH Percent change at 30 μM [1]: −35.2 ± 3%
